Source: patent US8895756B2, “Bendamustine pharmaceutical compositions” (priority 2005, dated 2014)
Where two headings read alike, the source gives them in different places.

Tests used:
[1] = HPLC stability of bendamustine in TBA 20% (v/v) with and without mannitol over 24 hours; format: physicochemical
Source text: FIGS. 3 and 4 show the amount of degradation of bendamustine as measured by HP1 and dimer formation quantified by HPLC (as described herein). HP1 and dimer formation increased as the amount of alcohol concentration decreased regardless of the alcohol. This increase in impurities occurred with an anticipated time dependence (see Tables 3-9).

[2] = reconstituted with 40 mL Sterile Water for Injection, cited from earlier work
[3] = for Bendamustine solubility: 5° C.
Experimental: (§1) Samples were then refrigerated at 5° C. and inspected after 0, 3, 6 and 24 hours for particulates and/or precipitates.

physchem = settings: 5 °C
Experimental: as §1

[4] = 10% (v/v) methanol in water with 25.5 mg/mL mannitol, aqueous with cosolvent or surfactant or cyclodextrin
[5] = alcohol/water solution with mannitol 25.5 mg/mL, aqueous with cosolvent or surfactant or cyclodextrin
[6] = alcohol/water solution with mannitol 25.5 mg/mL, aqueous with cosolvent or surfactant or cyclodextrin, thermodynamic from solid
[7] = alcohol/water solution with mannitol, aqueous with cosolvent or surfactant or cyclodextrin
[8] = alcohol/water solution with mannitol, aqueous with cosolvent or surfactant or cyclodextrin, thermodynamic from solid
[9] = alcohol/water solution with mannitol, water, thermodynamic from solid
[10] = water with mannitol 25.5 mg/mL, water, thermodynamic from solid

## Cl.Cn1c(CCCC(=O)O)nc2cc(N(CCCl)CCCl)ccc21 [bendamustine, 4-{5-[Bis(2-chloroethyl)amino]-1-methyl-2-benzimidazolyl}butyric acid]
[1]; TBA 20% (v/v) with Mannitol, 0 hours, reverse phase HPLC
  Purity (% Area): 99.59 % Area
[1]; TBA 20% (v/v) with Mannitol, 24 hours @ 5° C., reverse phase HPLC
  Purity (% Area): 99.35 % Area
[1]; TBA 20% (v/v) without Mannitol, 0 hours, normal phase HPLC
  Purity (% Area): 100.0 % Area
[1]; TBA 20% (v/v) without Mannitol, 24 hours @ 5° C., normal phase HPLC
  Purity (% Area): 98.80 % Area
[2]; room temperature storage
  stable period after reconstitution: 7 h
[2]; storage at 2-8° C.
  stable period after reconstitution: 140 h
[3]; 0% (Water Only), 6 Hours
  Bendamustine solubility: Precipitate
[3]; 0% (Water Only), 24 Hours
  Bendamustine solubility: Precipitate
[3]; 15 mg/mL bendamustine, 5% and 10% ethanol and TBA without mannitol, over 24 hours
  precipitation: did not precipitate
[3]; 1.9% Ethanol (v/v), 6 Hours
  Bendamustine solubility: Precipitate
[3]; 1.9% Ethanol (v/v), 24 Hours
  Bendamustine solubility: Precipitate
[3]; 5% Ethanol (v/v), 6 Hours
  Bendamustine solubility: Precipitate
[3]; 5% Ethanol (v/v), 24 Hours
  Bendamustine solubility: Precipitate
[3]; 5% Iso-propanol (v/v), 3 Hours
  Bendamustine solubility: Precipitate
[3]; 5% Iso-propanol (v/v), 6 Hours
  Bendamustine solubility: Precipitate
[3]; 5% Iso-propanol (v/v), 24 Hours
  Bendamustine solubility: Precipitate
[3]; 5% Methanol (v/v), 6 Hours
  Bendamustine solubility: Precipitate
[3]; 5% Methanol (v/v), 24 Hours
  Bendamustine solubility: Precipitate
[3]; 5% Tert-Butanol (v/v), 24 Hours
  Bendamustine solubility: Precipitate
[3]; 5% n-Propanol (v/v), 24 Hours
  Bendamustine solubility: Precipitate
[3]; 10% Ethanol (v/v), 24 Hours
  Bendamustine solubility: Precipitate
[3]; 10% Methanol (v/v), 24 Hours
  Bendamustine solubility: Precipitate
[3]; 10% Tert-Butanol (v/v), 24 Hours
  Bendamustine solubility: Precipitate
[3]; 20% Methanol (v/v), 24 Hours
  Bendamustine solubility: Precipitate
[3]; 20% n-Butanol (v/v), 3 Hours
  Bendamustine solubility: 2 layers
[3]; 20% n-Butanol (v/v), 6 Hours
  Bendamustine solubility: 2 layers
[3]; 20% n-Butanol (v/v), 24 Hours
  Bendamustine solubility: 2 layers
[3]; 20% n-Butanol (v/v), Zero Time
  Bendamustine solubility: 2 layers
[3]; 30% n-Butanol (v/v), 3 Hours
  Bendamustine solubility: 2 layers
[3]; 30% n-Butanol (v/v), 6 Hours
  Bendamustine solubility: 2 layers
[3]; 30% n-Butanol (v/v), 24 Hours
  Bendamustine solubility: 2 layers
[3]; 30% n-Butanol (v/v), Zero Time
  Bendamustine solubility: 2 layers
physchem; [4]
  solubility at 0 h: > 15 mg/mL
  solubility at 3 h: > 15 mg/mL
  solubility at 6 h: > 15 mg/mL
physchem; [5]
  solubility at 0 h: > 15 mg/mL
  solubility at 3 h: > 15 mg/mL
  solubility at 6 h: > 15 mg/mL
  solubility at 24 h: > 15 mg/mL
physchem; [6]
  solubility at 0 h: > 15 mg/mL
  solubility at 3 h: > 15 mg/mL
  solubility at 6 h: > 15 mg/mL
  solubility at 24 h: > 15 mg/mL
physchem; [7]
  solubility at 0 h: > 15 mg/mL
  solubility at 3 h: > 15 mg/mL
  solubility at 6 h: > 15 mg/mL
  solubility at 24 h: > 15 mg/mL
physchem; [8]
  solubility at 0 h: > 15 mg/mL
  solubility at 3 h: > 15 mg/mL
  solubility at 6 h: > 15 mg/mL
  solubility at 24 h: > 15 mg/mL
physchem; [9]
  solubility at 0 h: > 15 mg/mL
  solubility at 3 h: > 15 mg/mL
physchem; [10]
  solubility at 0 h: > 15 mg/mL
  solubility at 3 h: > 15 mg/mL
